US8703698B2, “Compositions and methods for treating atherosclerosis” (The University of Chicago, priority 2003, dated 2014)
Where no end group is shown, it is not given here. [ ]: non-standard residue; d: D form.

Legend:
[1] = tested on: J774 macrophages; assay: [3H]cholesterol efflux from cholesterol-loaded J774 macrophages in tissue culture; format: cell-based, mouse; settings: for cholesterol export enhancing activity, time course (FIG. 9) / cholesterol export enhancing activity relative to the human SAA1.1 78-96 containing liposomal formulation (FIG. 9): liposomal formulations, mouse J774 cells; for rate of [3H]cholesterol efflux into medium containing HDL: pre-incubation with liposomes containing 0.5 μM peptide, HDL as acceptor
[2] = tested on: [3H]-cholesterol-loaded J774 macrophages; assay: In vivo cholesterol efflux to plasma in mice injected with [3H]-cholesterol-loaded J774 macrophages
Procedure: In these experiments, in vivo cholesterol export was determined in mice injected with J774 macrophages cholesterol-loaded with RBC membranes and [^3H]-cholesterol. Two hundred thousand macrophages in 100:1 PBS were injected into each mouse through the tail vein. At various time points thereafter, approximately 25:1 of blood were collected from the tail vein of each animal into heparinized capillary tubes. The tubes were then centrifuged for 5 minutes in an Adams Autocrit Centrifuge to separate red blood cells from plasma. Cholesterol efflux was determined by measuring the appearance of [^3H]-cholesterol in plasma by scintillation spectrometry. To study whether export of cholesterol from J774 cells to plasma was influenced by non-liposome formulated D-27mer peptide (SEQ ID NO:10), 24 hours after injection of cholesterol-loaded J774 macrophages into mice, the same animals received, by intravenous injection, 30 μg, 60 μg, 150 μg, 225 μg, 300 μg or 600 μg of D-27mer. All these amounts of D-peptides were dissolved in 100:l of phosphate buffered saline and injected through the tail vein of each animal.
Additional in vivo studies have also been conducted wherein mice were first injected intravenously with [^3H]cholesterol-laden macrophages and then injected 24 hours later with liposomes containing 0.5 μM of synthetic peptides corresponding to amino acid residues 1-20, 21-50, 51-80 or 74-103 of murine SAA2.1. Results from this study are depicted in FIG. 1. At time points indicated in the graph of FIG. 1, approximately 25 μl of blood were collected from the tail vein of each animal. The blood samples were centrifuged to separate the red blood cells from the plasma and the [^3H]-cholesterol in plasma was determined by scintillation counting. Results are mean±SEM of four determinations.
To determine cholesterol export in vivo, J774 macrophages were cholesterol-loaded with red blood cell membranes and [^3H]-cholesterol as described above. Cells were washed four times with PBS/BSA and then detached from the culture dishes. Five million cells in 200 μl DMEM were injected into control mice or inflamed mice through the tail vein. At various time points, approximately 25 μl of blood were collected from the tail vein of each animal into heparinized capillary tubes and then centrifuged for 5 minutes in an Adams Autocrit Centrifuge to separate red blood cells from plasma. Cholesterol efflux was determined by measuring the appearance of [^3H]-cholesterol in plasma by scintillation spectrometry.
J774 cells cultured in 6-well plates were enriched with cholesterol by incubating with red blood cell (RBC) membrane fragments (175:g as cholesterol) that had been previously labeled with 0.5:Ci/ml [^3H]-cholesterol at 37° C. for 24 hours in 0.2% bovine serum albumin (BSA). After loading with the labelled RBC membrane for 6 hours, cells were then washed with phosphate-buffered saline/BSA (PBS/BSA) three times followed by an 18 hour equilibration period during which monolayers were exposed to DMEM/BSA. To determine cholesterol export in vivo, J774 macrophages were cholesterol-loaded with RBC membranes and [^3H]-cholesterol as described previously above. Cells were washed four times with PBS/BSA and then detached from the culture dishes. Two hundred thousand cells in 100:l PBS were injected into mice through the tail vein. At various time points thereafter, approximately 25:l of blood were collected from the tail vein of each animal into heparinized capillary tubes. These tubes were then centrifuged for 5 minutes in an Adams Autocrit Centrifuge to separate red blood cells from plasma. Cholesterol efflux was determined by measuring the appearance of [^3H]-cholesterol in plasma by scintillation spectrometry. […]

[3] = target: T1, acyl CoA:cholesterol acyl transferase (Mus musculus, UniProt Q61263); assay: Incorporation of [14C]oleate into cholesteryl ester in cholesterol-laden macrophages (ACAT activity); format: cell-based, murine; settings: liposomes containing 0.5 μM synthetic peptide; 6 hour incubation; cholesterol-laden murine cells
T1 construct: host or cells: J774 mouse macrophages, cholesterol-loaded
T1 sequence (Q61263 1-540): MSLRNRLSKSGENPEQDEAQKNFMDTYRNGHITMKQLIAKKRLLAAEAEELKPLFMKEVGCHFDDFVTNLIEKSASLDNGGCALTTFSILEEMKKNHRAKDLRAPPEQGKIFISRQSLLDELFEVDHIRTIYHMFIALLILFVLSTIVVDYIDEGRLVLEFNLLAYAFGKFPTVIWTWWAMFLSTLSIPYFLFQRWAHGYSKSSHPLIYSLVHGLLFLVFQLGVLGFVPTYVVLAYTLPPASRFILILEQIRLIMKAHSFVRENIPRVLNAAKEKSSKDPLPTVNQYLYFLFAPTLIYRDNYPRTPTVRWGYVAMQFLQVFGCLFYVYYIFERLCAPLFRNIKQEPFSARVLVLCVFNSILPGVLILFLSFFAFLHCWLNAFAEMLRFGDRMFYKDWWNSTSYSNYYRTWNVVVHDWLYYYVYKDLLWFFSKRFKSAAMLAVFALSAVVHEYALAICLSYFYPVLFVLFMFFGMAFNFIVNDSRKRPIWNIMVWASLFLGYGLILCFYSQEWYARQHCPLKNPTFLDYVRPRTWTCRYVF
Procedure: The incorporation of [^14C]oleate into cholesteryl ester was used as a measure of acyl CoA:cholesterol acyl transferase activity to identify compositions inhibiting the enzyme activity. The relative acyl CoA:cholesterol acyl transferase activity was determined in cholesterol-laden murine cells that had been cultured in medium in the absence of liposomes or in the presence of protein-free liposomes or liposomes containing 0.5 μM synthetic peptides corresponding to amino acids 1-20, 21-50, 51-80 and 74-103 of murine SAA2.1.
To load the cells with cholesterol, nearly confluent mono-layers were washed 3 times with phosphate buffered saline containing 2 mg/mL fatty acid-free bovine serum albumin (PBS-BSA) and incubated for 5 hours in DMEM supplemented with 5% lipoprotein-depleted serum (LPDS) (d>1.25 g/mL) and 175 μg of red blood cell membrane cholesterol. For the purpose of pool equilibration of added cholesterol, cell cultures were rinsed twice with PBS-BSA and incubated overnight in DMEM containing 5% LPDS. The relative activity of acyl CoA:cholesterol acyl transferase was determined in cholesterol-laden cells that had been cultured in medium containing no liposomes, protein-free liposomes or liposomes containing 0.5:M synthetic peptides corresponding to amino acid residues 1-20 (SEQ ID NO:1), 21-50 (SEQ ID NO:2), 51-80 (SEQ ID NO:3) or 74-103 (SEQ ID NO:4) of murine SAA2.1, respectively. Following 3 hours incubation with the above media, [^14C]-oleate was added and the cells were incubated for another 3 hour period (Mendez et al. J. Clin. Invest. 1994 94:1698-1705; Oram et al. Arterioscler. Thromb. 1991 11:403-414). Cells were chilled on ice and washed twice with PBS-BSA and twice with PBS. After addition of [^3H]-cholesteryl oleate (6000 dpm/well) as an internal standard, the lipids were extracted from the labeled cells and analyzed by thin-layer chromatography as described by Mendez et al. (J. Clin. Invest. 1994 94:1698-1705) and Oram et al. (Arterioscler. Thromb. 1991 11:403-414). The radioactivity in appropriate spots was measured to determine the incorporation of radioactivity into cholesteryl esters as a measure of acyl CoA:cholesterol acyl transferase activity.

[4] = tested on: cholesterol ester hydrolase; assay: Rate of hydrolysis of cholesteryl ester in cholesterol-laden J774 cells (cholesterol ester hydrolase activity); format: cell-based, murine; settings: liposomes containing 0.5 μl synthetic peptide; J774 cells; Sandoz 58-035 present
Procedure: Identification of the domain of SAA2.1 that is responsible for enhancing cholesterol ester hydrolase activity was performed in J774 cells preloaded with radio-labeled cholesteryl esters. These experiments were performed in the presence of Sandoz 58-035, an inhibitor of acyl CoA:cholesterol acyl transferase activity, to prevent re-esterification of liberated cholesterol and [^14C]oleate. Incubations proceeded for times ranging from 0 to 24 hours, following which the remaining quantities of [^14C]-labeled cholesteryl oleate in cells were measured to determine the rate of hydrolysis of cholesteryl ester. […] However, an equivalent amount of liposomes containing the synthetic peptide corresponding to amino acid residues 74-103 of murine SAA2.1 caused a 3-fold increase in cholesterol ester hydrolase activity in these cholesterol-laden murine cells. Newly confluent J774 cells were labeled with [^14C]-oleate during cholesterol loading with red blood cell membranes as described above. Cells were then incubated for up to 24 hours with 2 mL of DMEM containing 5% LPDS and 50 μg/mL of either native HDL, SAA-HDL, liposomes containing 2 μmoles of apoA-1, SAA1.1 or 2.1, or liposomes containing 0.5:mol synthetic peptides corresponding to amino acid residues 1-20 (SEQ ID NO:1), 21-50 (SEQ ID NO:2), 51-80 (SEQ ID NO:3) and 74-103 (SEQ ID NO:4) of murine SAA2.1. To determine the rate of cholesteryl ester hydrolysis, 2 μg/mL of the acyl CoA:cholesterol acyl transferase inhibitor Sandoz 58-035 (propanimide, 3-(decyldimethylsilyl)-N-[2-(4-methylphenyl)-1-phenylethyl]-(9Cl) was added during incubation with lipoproteins or liposomes to prevent […] and free cholesterol. To examine whether or not the rate of cholesteryl ester hydrolysis involved the lysosomal cholesteryl ester hydrolase, the cells were cultured in the presence of 50 μg/mL of either native HDL and chloroquine or SAA-HDL and chloroquine (100:M). Chloroquine is an agent that neutralizes the lysosomal proton gradient. At various time points, cellular lipids were extracted and analyzed for cholesteryl ester radioactivity as described above.

AANKWGRSGRDPNHFR [SEQ ID NO:28, residues 81-96 of human SAA2.1]
cholesterol export enhancing activity, time course (FIG. 9) [1]: little to no cholesterol export enhancing activity

ADQAANKWGRSGRDPNHFR [SEQ ID NO:11, residues 78-96 of human SAA2.1]
cholesterol export enhancing activity relative to the human SAA1.1 78-96 containing liposomal formulation (FIG. 9) [1]: about half

ADQEANRHGRSGKDPNYYRPPGLPAKY [SEQ ID NO:10] ([dA][dD][dQ][dE][dA][dN][dR][dH]G[dR][dS]G[dK][dD][dP][dN][dY][dY][dR][dP][dP]G[dL][dP][dA][dK][dY]) [residues 77-103 of murine SAA1.1, all D-amino acids]
duration of increase in cholesterol efflux (FIG. 12) ([2]; following oral and intravenous administration): at least 4 days
radiolabeled cholesterol exported in the plasma (FIG. 15) ([2]; non-liposome formulated, in 100 μl PBS, intravenous, 15 μg/mouse peptide or 75 μg/mouse full length protein): caused an increase in cholesterol exported in the plasma
[3H]-cholesterol efflux as plasma radioactivity (dpm) (FIG. 11) ([2]; non-liposome formulated, in PBS, intravenous, 30 to 600 μg per mouse): dose-dependent increase
efficacy on oral administration to fasted animals versus animals receiving food (FIG. 16) ([2]; non-liposome formulated, oral, 300 μg): further enhanced
cholesterol exported to the plasma at 24 hours, PBS containing 5% weight/volume glucose versus PBS (FIG. 13) ([2]; non-liposome formulated, oral, same dose): higher
efficacy with smaller volume vehicle containing the same amount of peptide (FIG. 16) ([2]; oral, 300 μg in 100 μl versus 500 μl PBS, fasted and fed mice): efficacy was enhanced

DQAANKWGRSGRDPNHFR [SEQ ID NO:26, residues 79-96 of human SAA2.1]
cholesterol export enhancing activity relative to the human SAA1.1 78-96 containing liposomal formulation (FIG. 9) [1]: about half

QAANKWGRSGRDPNHFR [SEQ ID NO:27, residues 80-96 of human SAA2.1]
cholesterol export enhancing activity, time course (FIG. 9) [1]: little to no cholesterol export enhancing activity

RSFFSFLGEAFDGARDMWRAYSD [SEQ ID NO:6, synthetic peptide, residues 1-23 of human SAA1.1 and/or SAA2.1]
[3H]-cholesterol efflux as plasma radioactivity (dpm) (FIG. 1) ([2]; intravenous liposomes containing 0.5 μM peptide, 24 hours after macrophages): promoted in vivo cholesterol export

TDMKEANWKNSDKYFHARGNYDAAQRGPGG [SEQ ID NO:2, synthetic peptide, residues 21-50 of murine SAA2.1]
relative acyl CoA:cholesterol acyl transferase activity [3]: no significant effect
rate of [3H]cholesterol efflux into medium containing HDL [1]: did not cause any significant changes
rate of hydrolysis of [14C]-labeled cholesteryl oleate versus protein-free liposomes [4]: no significant differences

VWAAEKISDGREAFQEFFGRGHEDTIADQE [SEQ ID NO:3, synthetic peptide, residues 51-80 of murine SAA2.1]
relative acyl CoA:cholesterol acyl transferase activity [3]: no significant effect
rate of [3H]cholesterol efflux into medium containing HDL [1]: did not cause any significant changes
rate of hydrolysis of [14C]-labeled cholesteryl oleate versus protein-free liposomes [4]: no significant differences
